Tests used:
[1] = Solid stability test (4 weeks of storage at 80° C., closed system; HPLC); format: physicochemical; conditions: for Chemical purity after 4 weeks of storage at 80° C. / Solid stability (result in words): 80° C. (closed system), 4 weeks; for Chemical purity after 4 weeks of storage at 80° C.: glass bottle; for Chemical purity after 4 weeks of storage at 80° C. / Chemical purity before storage: HPLC; for Solid stability (result in words): related substances by HPLC; for Change (chemical purity): after 4 weeks at 80° C. versus before storage; for Chemical purity before storage: UV 220
Procedure: The solid stability of the type II crystal of Compound (1) in free form, the type III crystal of Compound (1) in free form, the type VII crystal of Compound (1) in free form, and the type VIII crystal of Compound (1) in free form obtained in the examples, reference example, and comparative example were evaluated after 4 weeks of storage by the following procedure. • Storage conditions: 80° C. (closed system) (HIFLEX (high-temperature storage chamber manufactured by ETAC)) • Storage period: 4 weeks • Storage volume: Approximately 30 mg • Storage container: Glass bottle
Changes in the mass of the related substances (the amounts of detected substances other than Compound (1)) were analyzed by HPLC according to the following method. Approximately 8 mg of each sample was weighed and dissolved in I mL of a chloroform-methanol mixture (1:1 v/v). Fifty μL of this solution was measured and diluted with 950 μL of an acetonitrile-water mixture (7:3), and 5 μL of the resulting solution was accurately measured and used as the sample for the analysis.
The mass of the related substances in the sample solution was determined by HPLC analysis. The instrument, including data processing, was handled in accordance with the method and procedure indicated for each instrument. • Column: InertSustainSwift C18 (2.1×50 mm, 1.9 μm) manufactured by GL Sciences • UV detection: […] • Column temperature: 40° C. • Flow rate: 0.3 mL/min • Sample cooler: 10° C. • Sample concentration: 0.1 mg/mL • Mobile phase A: 10 mmol/L phosphate buffer (pH 6.8)/acetonitrile (95:5) mixture • Mobile phase B: Acetonitrile • The gradients are shown in Table 4.
The solid stability of the type III crystal of Compound (1) with succinic acid, the type I crystal of Compound (1) with citric acid, the type IV crystal of Compound (1) with citric acid, the type I crystal of Compound (1) with sorbic acid, and the type I crystal of Compound (1) with phosphoric acid obtained in the examples, reference example, and comparative examples were evaluated after 4 weeks of storage. The evaluation method, storage, and measurement conditions were as described in Test Example 1.

[2] = Dynamic vapor sorption (DVS) test; format: physicochemical; conditions: 25° C.; for Hygroscopicity (result in words): 5 to 95% RH; for Reversibility of water adsorption when the humidity was decreased: decrease from 95% to 5% RH
Procedure: Vapor sorption tests were performed using the type II crystal of Compound (1) in free form, the type III crystal of Compound (1) in free form, the type VII crystal of Compound (1) in free form, and the type VIII crystal of Compound (1) in free form obtained in the examples, reference example, and comparative example.
Vapor sorption tests were conducted under the following conditions.
Approximately 10 mg of the sample was filled into a specialized quartz holder to continuously measure and record the weight of the sample at each humidity was under the following conditions. The instrument, including data processing, was handled in accordance with the method and procedure indicated for each instrument. • Instrument: VTI-SA+(manufactured by TA Instruments) • Drying temperature: 60° C. • Heating rate: 1° C./min • Equilibration of drying: Confirmation of no more than 0.01 wt % decrease in 5 minutes within a period not exceeding 300 minutes • Measurement temperature: 25° C. • Equilibration of humidification: Confirmation of no more than 0.01 wt % increase in 5 minutes within a period not exceeding 120 minutes • Relative humidity program: Increase from 5 to 95% RH in increments of 5% RH, and decrease from 95% to 5% RH in increments of 5% RH. • Changes in the weight over the range of the measurement conditions obtained in these tests are shown in FIGS. 9 through 12.
Vapor sorption tests were performed using the type III crystal of Compound (1) with succinic acid, the type I crystal of Compound (1) with citric acid, the type IV crystal of Compound (1) with citric acid, the type I crystal of Compound (1) with sorbic acid, and the type I crystal of Compound (1) with phosphoric acid obtained in the examples, reference example, and comparative examples.
Vapor sorption tests were conducted under the same conditions as in Test Example 2.

[3] = listed as Type II crystal in free form
[4] = listed as type III crystal of Compound (1) in free form

| Compound | Chemical purity after 4 weeks of storage at 80° C. [1] [%] | Solid stability (result in words) [1] | Change (chemical purity) [1] | Chemical purity before storage [1] [%] | Hygroscopicity (result in words) [2] | Chemical purity after 4 weeks of storage at 80° C. [1, 3] [%] | Change (chemical purity) [1, 3] [%] | Chemical purity before storage [1, 3] [%] | Weight increase under 95% relative humidity ([2]; 95% RH) [%] | Solid stability (result in words) [1, 4] | Hygroscopicity (result in words) [2, 4] | Reversibility of water adsorption when the humidity was decreased [2, 4] | Solid stability (result in words) ([1]; listed as type VII crystal of Compound (1) in free form) | Reversibility of water adsorption when the humidity was decreased [2] |
| --- | --- | --- | --- | --- | --- | --- | --- | --- | --- | --- | --- | --- | --- | --- |
| C#Cc1c(-c2cnc3ccccc3c2)c2c(N)ncnc2n1C12CCC(NC(=O)c3cnc(C)cn3)(CC1)C2 [Type I crystal of Compound (1) with citric acid] [N-(4-(4-amino-6-ethynyl-5-(quinolin-3-yl)-7H-pyrrolo[2,3-d]pyrimidin-7-yl)bicyclo[2.2.1]heptan-1-yl)-5-methylpyrazine-2-carboxamide] | 99.03 | unstable crystals with decreases in purity | −0.72% | 99.75 | highly hygroscopic |  |  |  |  |  |  |  |  |  |
| C#Cc1c(-c2cnc3ccccc3c2)c2c(N)ncnc2n1C12CCC(NC(=O)c3cnc(C)cn3)(CC1)C2 [Type I crystal of Compound (1) with phosphoric acid] [N-(4-(4-amino-6-ethynyl-5-(quinolin-3-yl)-7H-pyrrolo[2,3-d]pyrimidin-7-yl)bicyclo[2.2.1]heptan-1-yl)-5-methylpyrazine-2-carboxamide] | 99.50 | unstable crystals with decreases in purity | −0.40% | 99.90 | highly hygroscopic |  |  |  |  |  |  |  |  |  |
| C#Cc1c(-c2cnc3ccccc3c2)c2c(N)ncnc2n1C12CCC(NC(=O)c3cnc(C)cn3)(CC1)C2 [Type II crystal of Compound (1) in free form] [N-(4-(4-amino-6-ethynyl-5-(quinolin-3-yl)-7H-pyrrolo[2,3-d]pyrimidin-7-yl)bicyclo[2.2.1]heptan-1-yl)-5-methylpyrazine-2-carboxamide] |  | extremely stable crystals with almost no increase in the related substances |  |  | hardly hygroscopic | 99.78 | −0.02 | 99.80 | 0.16 |  |  |  |  |  |
| C#Cc1c(-c2cnc3ccccc3c2)c2c(N)ncnc2n1C12CCC(NC(=O)c3cnc(C)cn3)(CC1)C2 [Type III crystal in free form, N-(4-(4-amino-6-ethynyl-5-(quinolin-3-yl)-7H-pyrrolo[2,3-d]pyrimidin-7-yl)bicyclo[2.2.1]heptan-1-yl)-5-methylpyrazine-2-carboxamide] | 99.60 |  | +0.02% | 99.58 | low hygroscopicity as long as RH is less than 65% |  |  |  |  | extremely stable crystals with almost no increase in the related substances | hygroscopicity that sharply increased at above 65% RH | reversible |  |  |
| C#Cc1c(-c2cnc3ccccc3c2)c2c(N)ncnc2n1C12CCC(NC(=O)c3cnc(C)cn3)(CC1)C2 [Type IV crystal of Compound (1) with citric acid] [N-(4-(4-amino-6-ethynyl-5-(quinolin-3-yl)-7H-pyrrolo[2,3-d]pyrimidin-7-yl)bicyclo[2.2.1]heptan-1-yl)-5-methylpyrazine-2-carboxamide] | 93.49 | unstable crystals with decreases in purity | −6.42% | 99.91 | highly hygroscopic |  |  |  |  |  |  |  |  |  |
| C#Cc1c(-c2cnc3ccccc3c2)c2c(N)ncnc2n1C12CCC(NC(=O)c3cnc(C)cn3)(CC1)C2 [Type VII crystal in free form, N-(4-(4-amino-6-ethynyl-5-(quinolin-3-yl)-7H-pyrrolo[2,3-d]pyrimidin-7-yl)bicyclo[2.2.1]heptan-1-yl)-5-methylpyrazine-2-carboxamide] | 99.63 |  |  | 99.63 | highly hygroscopic |  |  |  |  |  |  |  | extremely stable crystals with almost no increase in the related substances | irreversible |
| C#Cc1c(-c2cnc3ccccc3c2)c2c(N)ncnc2n1C12CCC(NC(=O)c3cnc(C)cn3)(CC1)C2 [Type VIII crystal in free form, N-(4-(4-amino-6-ethynyl-5-(quinolin-3-yl)-7H-pyrrolo[2,3-d]pyrimidin-7-yl)bicyclo[2.2.1]heptan-1-yl)-5-methylpyrazine-2-carboxamide] | 99.43 |  | −0.19% | 99.62 | highly hygroscopic |  |  |  |  |  |  |  |  | irreversible |

— patent US20250276973A1, “CRYSTAL OF 7H-PYRROLO[2,3-D]PYRIMIDINE-4-AMINE DERIVATIVE” (TAIHO PHARMACEUTICAL CO., LTD., priority 2022, published 2025)
